This passage reports normalised inhibition (eCFP-eYFP dual reporter) results from the OligoGym collection.

Oligonucleotides are given in HELM: sugar(base)linkage, 5' to 3'; d 2'-deoxyribose, r ribose, m 2'-O-methylribose, p phosphate. ss, as = sense and antisense strand

In this data set the target is TMEM63B. The experiment in a line: reporter assay of Huesken 2005. The settings on record: siRNA.
Further: test concentration or dose not given here.

“RNA1{r(U)p.r(U)p.r(G)p.r(C)p.r(U)p.r(G)p.r(A)p.r(U)p.r(G)p.r(C)p.r(C)p.r(A)p.r(C)p.r(C)p.r(C)p.r(G)p.r(A)p.r(C)p.r(G)p.d(T)p.d(T)}|RNA2{r(C)p.r(G)p.r(U)p.r(C)p.r(G)p.r(G)p.r(G)p.r(U)p.r(G)p.r(G)p.r(C)p.r(A)p.r(U)p.r(C)p.r(A)p.r(G)p.r(C)p.r(A)p.r(A)p.d(C)p.d(T)}$$$RNA1{StrandType:ss}|RNA2{StrandType:as}$” returned a normalised inhibition (eCFP-eYFP dual reporter) of 39.7%.

In the case of “RNA1{r(U)p.r(C)p.r(A)p.r(U)p.r(C)p.r(A)p.r(U)p.r(C)p.r(A)p.r(C)p.r(C)p.r(A)p.r(C)p.r(C)p.r(A)p.r(U)p.r(G)p.r(G)p.r(A)p.d(T)p.d(T)}|RNA2{r(U)p.r(C)p.r(C)p.r(A)p.r(U)p.r(G)p.r(G)p.r(U)p.r(G)p.r(G)p.r(U)p.r(G)p.r(A)p.r(U)p.r(G)p.r(A)p.r(U)p.r(G)p.r(A)p.d(T)p.d(G)}$$$RNA1{StrandType:ss}|RNA2{StrandType:as}$”, the normalised inhibition (eCFP-eYFP dual reporter) was 79.2%.

Consider “RNA1{r(U)p.r(C)p.r(U)p.r(G)p.r(G)p.r(G)p.r(G)p.r(A)p.r(G)p.r(A)p.r(A)p.r(C)p.r(A)p.r(G)p.r(G)p.r(A)p.r(C)p.r(A)p.r(A)p.d(T)p.d(T)}|RNA2{r(U)p.r(U)p.r(G)p.r(U)p.r(C)p.r(C)p.r(U)p.r(G)p.r(U)p.r(U)p.r(C)p.r(U)p.r(C)p.r(C)p.r(C)p.r(C)p.r(A)p.r(G)p.r(A)p.d(G)p.d(C)}$$$RNA1{StrandType:ss}|RNA2{StrandType:as}$”, for which the normalised inhibition (eCFP-eYFP dual reporter) was found to be 68%.

“RNA1{r(U)p.r(G)p.r(U)p.r(G)p.r(U)p.r(A)p.r(A)p.r(A)p.r(U)p.r(G)p.r(C)p.r(C)p.r(A)p.r(G)p.r(G)p.r(G)p.r(C)p.r(U)p.r(G)p.d(T)p.d(T)}|RNA2{r(C)p.r(A)p.r(G)p.r(C)p.r(C)p.r(C)p.r(U)p.r(G)p.r(G)p.r(C)p.r(A)p.r(U)p.r(U)p.r(U)p.r(A)p.r(C)p.r(A)p.r(C)p.r(A)p.d(C)p.d(G)}$$$RNA1{StrandType:ss}|RNA2{StrandType:as}$” came in with a normalised inhibition (eCFP-eYFP dual reporter) of 66.8%.

Substance “RNA1{r(A)p.r(G)p.r(G)p.r(U)p.r(G)p.r(C)p.r(U)p.r(G)p.r(C)p.r(A)p.r(G)p.r(G)p.r(A)p.r(C)p.r(U)p.r(C)p.r(A)p.r(G)p.r(A)p.d(T)p.d(T)}|RNA2{r(U)p.r(C)p.r(U)p.r(G)p.r(A)p.r(G)p.r(U)p.r(C)p.r(C)p.r(U)p.r(G)p.r(C)p.r(A)p.r(G)p.r(C)p.r(A)p.r(C)p.r(C)p.r(U)p.d(G)p.d(A)}$$$RNA1{StrandType:ss}|RNA2{StrandType:as}$” registered a normalised inhibition (eCFP-eYFP dual reporter) of 61.8%.

In the case of “RNA1{r(G)p.r(U)p.r(C)p.r(U)p.r(C)p.r(C)p.r(A)p.r(G)p.r(C)p.r(U)p.r(C)p.r(C)p.r(G)p.r(U)p.r(U)p.r(G)p.r(A)p.r(C)p.r(U)p.d(T)p.d(T)}|RNA2{r(A)p.r(G)p.r(U)p.r(C)p.r(A)p.r(A)p.r(C)p.r(G)p.r(G)p.r(A)p.r(G)p.r(C)p.r(U)p.r(G)p.r(G)p.r(A)p.r(G)p.r(A)p.r(C)p.d(A)p.d(G)}$$$RNA1{StrandType:ss}|RNA2{StrandType:as}$”, the normalised inhibition (eCFP-eYFP dual reporter) was 69.5%.

Regarding “RNA1{r(C)p.r(A)p.r(U)p.r(G)p.r(A)p.r(C)p.r(C)p.r(U)p.r(A)p.r(C)p.r(A)p.r(G)p.r(U)p.r(A)p.r(U)p.r(C)p.r(A)p.r(C)p.r(C)p.d(T)p.d(T)}|RNA2{r(G)p.r(G)p.r(U)p.r(G)p.r(A)p.r(U)p.r(A)p.r(C)p.r(U)p.r(G)p.r(U)p.r(A)p.r(G)p.r(G)p.r(U)p.r(C)p.r(A)p.r(U)p.r(G)p.d(A)p.d(C)}$$$RNA1{StrandType:ss}|RNA2{StrandType:as}$”, the normalised inhibition (eCFP-eYFP dual reporter) stood at 58.9%.

For “RNA1{r(U)p.r(C)p.r(C)p.r(A)p.r(U)p.r(C)p.r(C)p.r(G)p.r(A)p.r(G)p.r(G)p.r(C)p.r(U)p.r(U)p.r(C)p.r(A)p.r(U)p.r(C)p.r(U)p.d(T)p.d(T)}|RNA2{r(A)p.r(G)p.r(A)p.r(U)p.r(G)p.r(A)p.r(A)p.r(G)p.r(C)p.r(C)p.r(U)p.r(C)p.r(G)p.r(G)p.r(A)p.r(U)p.r(G)p.r(G)p.r(A)p.d(G)p.d(A)}$$$RNA1{StrandType:ss}|RNA2{StrandType:as}$”, the normalised inhibition (eCFP-eYFP dual reporter) was determined as 65.3%.

For “RNA1{r(U)p.r(C)p.r(G)p.r(C)p.r(C)p.r(U)p.r(A)p.r(A)p.r(U)p.r(G)p.r(U)p.r(U)p.r(C)p.r(C)p.r(U)p.r(C)p.r(G)p.r(A)p.r(U)p.d(T)p.d(T)}|RNA2{r(A)p.r(U)p.r(C)p.r(G)p.r(A)p.r(G)p.r(G)p.r(A)p.r(A)p.r(C)p.r(A)p.r(U)p.r(U)p.r(A)p.r(G)p.r(G)p.r(C)p.r(G)p.r(A)p.d(G)p.d(C)}$$$RNA1{StrandType:ss}|RNA2{StrandType:as}$”, the normalised inhibition (eCFP-eYFP dual reporter) came to 77.9%.

“RNA1{r(U)p.r(C)p.r(A)p.r(U)p.r(G)p.r(A)p.r(C)p.r(C)p.r(U)p.r(A)p.r(C)p.r(A)p.r(G)p.r(U)p.r(A)p.r(U)p.r(C)p.r(A)p.r(C)p.d(T)p.d(T)}|RNA2{r(G)p.r(U)p.r(G)p.r(A)p.r(U)p.r(A)p.r(C)p.r(U)p.r(G)p.r(U)p.r(A)p.r(G)p.r(G)p.r(U)p.r(C)p.r(A)p.r(U)p.r(G)p.r(A)p.d(C)p.d(C)}$$$RNA1{StrandType:ss}|RNA2{StrandType:as}$” came in with a normalised inhibition (eCFP-eYFP dual reporter) of 60.2%.

With “RNA1{r(C)p.r(U)p.r(U)p.r(U)p.r(C)p.r(C)p.r(U)p.r(C)p.r(A)p.r(U)p.r(C)p.r(U)p.r(U)p.r(C)p.r(A)p.r(U)p.r(G)p.r(G)p.r(U)p.d(T)p.d(T)}|RNA2{r(A)p.r(C)p.r(C)p.r(A)p.r(U)p.r(G)p.r(A)p.r(A)p.r(G)p.r(A)p.r(U)p.r(G)p.r(A)p.r(G)p.r(G)p.r(A)p.r(A)p.r(A)p.r(G)p.d(T)p.d(G)}$$$RNA1{StrandType:ss}|RNA2{StrandType:as}$”, the normalised inhibition (eCFP-eYFP dual reporter) is 72.7%.

Substance “RNA1{r(C)p.r(A)p.r(C)p.r(C)p.r(A)p.r(C)p.r(U)p.r(C)p.r(C)p.r(A)p.r(G)p.r(C)p.r(C)p.r(A)p.r(U)p.r(C)p.r(A)p.r(U)p.r(C)p.d(T)p.d(T)}|RNA2{r(G)p.r(A)p.r(U)p.r(G)p.r(A)p.r(U)p.r(G)p.r(G)p.r(C)p.r(U)p.r(G)p.r(G)p.r(A)p.r(G)p.r(U)p.r(G)p.r(G)p.r(U)p.r(G)p.d(A)p.d(G)}$$$RNA1{StrandType:ss}|RNA2{StrandType:as}$” registered a normalised inhibition (eCFP-eYFP dual reporter) of 70.2%.

Turning to “RNA1{r(G)p.r(C)p.r(A)p.r(C)p.r(A)p.r(U)p.r(C)p.r(A)p.r(U)p.r(C)p.r(G)p.r(G)p.r(G)p.r(C)p.r(U)p.r(G)p.r(C)p.r(U)p.r(G)p.d(T)p.d(T)}|RNA2{r(C)p.r(A)p.r(G)p.r(C)p.r(A)p.r(G)p.r(C)p.r(C)p.r(C)p.r(G)p.r(A)p.r(U)p.r(G)p.r(A)p.r(U)p.r(G)p.r(U)p.r(G)p.r(C)p.d(C)p.d(G)}$$$RNA1{StrandType:ss}|RNA2{StrandType:as}$”, the normalised inhibition (eCFP-eYFP dual reporter) was determined as 69.9%.

The substance “RNA1{r(U)p.r(U)p.r(A)p.r(U)p.r(C)p.r(G)p.r(G)p.r(C)p.r(A)p.r(A)p.r(C)p.r(G)p.r(C)p.r(C)p.r(A)p.r(U)p.r(G)p.r(G)p.r(A)p.d(T)p.d(T)}|RNA2{r(U)p.r(C)p.r(C)p.r(A)p.r(U)p.r(G)p.r(G)p.r(C)p.r(G)p.r(U)p.r(U)p.r(G)p.r(C)p.r(C)p.r(G)p.r(A)p.r(U)p.r(A)p.r(A)p.d(A)p.d(G)}$$$RNA1{StrandType:ss}|RNA2{StrandType:as}$” registered a normalised inhibition (eCFP-eYFP dual reporter) of 62.7%.

On to “RNA1{r(U)p.r(G)p.r(C)p.r(U)p.r(G)p.r(C)p.r(C)p.r(U)p.r(G)p.r(U)p.r(C)p.r(A)p.r(A)p.r(C)p.r(U)p.r(U)p.r(C)p.r(U)p.r(C)p.d(T)p.d(T)}|RNA2{r(G)p.r(A)p.r(G)p.r(A)p.r(A)p.r(G)p.r(U)p.r(U)p.r(G)p.r(A)p.r(C)p.r(A)p.r(G)p.r(G)p.r(C)p.r(A)p.r(G)p.r(C)p.r(A)p.d(C)p.d(G)}$$$RNA1{StrandType:ss}|RNA2{StrandType:as}$”, for which the normalised inhibition (eCFP-eYFP dual reporter) worked out at 60.5%.

For the substance “RNA1{r(A)p.r(C)p.r(U)p.r(A)p.r(C)p.r(A)p.r(A)p.r(G)p.r(C)p.r(G)p.r(G)p.r(G)p.r(A)p.r(G)p.r(A)p.r(A)p.r(G)p.r(G)p.r(A)p.d(T)p.d(T)}|RNA2{r(U)p.r(C)p.r(C)p.r(U)p.r(U)p.r(C)p.r(U)p.r(C)p.r(C)p.r(C)p.r(G)p.r(C)p.r(U)p.r(U)p.r(G)p.r(U)p.r(A)p.r(G)p.r(U)p.d(C)p.d(T)}$$$RNA1{StrandType:ss}|RNA2{StrandType:as}$”, the normalised inhibition (eCFP-eYFP dual reporter) turned out to be 72%.

Regarding “RNA1{r(U)p.r(G)p.r(C)p.r(A)p.r(G)p.r(C)p.r(G)p.r(A)p.r(G)p.r(U)p.r(C)p.r(C)p.r(C)p.r(U)p.r(G)p.r(C)p.r(A)p.r(C)p.r(A)p.d(T)p.d(T)}|RNA2{r(U)p.r(G)p.r(U)p.r(G)p.r(C)p.r(A)p.r(G)p.r(G)p.r(G)p.r(A)p.r(C)p.r(U)p.r(C)p.r(G)p.r(C)p.r(U)p.r(G)p.r(C)p.r(A)p.d(G)p.d(G)}$$$RNA1{StrandType:ss}|RNA2{StrandType:as}$”, the normalised inhibition (eCFP-eYFP dual reporter) was determined as 25.9%.

Consider “RNA1{r(C)p.r(G)p.r(A)p.r(U)p.r(G)p.r(C)p.r(A)p.r(G)p.r(A)p.r(G)p.r(A)p.r(G)p.r(G)p.r(A)p.r(A)p.r(G)p.r(A)p.r(A)p.r(G)p.d(T)p.d(T)}|RNA2{r(C)p.r(U)p.r(U)p.r(C)p.r(U)p.r(U)p.r(C)p.r(C)p.r(U)p.r(C)p.r(U)p.r(C)p.r(U)p.r(G)p.r(C)p.r(A)p.r(U)p.r(C)p.r(G)p.d(A)p.d(G)}$$$RNA1{StrandType:ss}|RNA2{StrandType:as}$”, for which the normalised inhibition (eCFP-eYFP dual reporter) turned out to be 56.4%.

Substance “RNA1{r(G)p.r(G)p.r(G)p.r(U)p.r(U)p.r(C)p.r(C)p.r(U)p.r(A)p.r(G)p.r(C)p.r(U)p.r(C)p.r(C)p.r(C)p.r(A)p.r(C)p.r(G)p.r(U)p.d(T)p.d(T)}|RNA2{r(A)p.r(C)p.r(G)p.r(U)p.r(G)p.r(G)p.r(G)p.r(A)p.r(G)p.r(C)p.r(U)p.r(A)p.r(G)p.r(G)p.r(A)p.r(A)p.r(C)p.r(C)p.r(C)p.d(C)p.d(G)}$$$RNA1{StrandType:ss}|RNA2{StrandType:as}$” showed a normalised inhibition (eCFP-eYFP dual reporter) of 57.9%.

In the case of “RNA1{r(A)p.r(U)p.r(U)p.r(U)p.r(U)p.r(G)p.r(A)p.r(G)p.r(G)p.r(A)p.r(A)p.r(G)p.r(C)p.r(C)p.r(U)p.r(A)p.r(C)p.r(C)p.r(C)p.d(T)p.d(T)}|RNA2{r(G)p.r(G)p.r(G)p.r(U)p.r(A)p.r(G)p.r(G)p.r(C)p.r(U)p.r(U)p.r(C)p.r(C)p.r(U)p.r(C)p.r(A)p.r(A)p.r(A)p.r(A)p.r(U)p.d(G)p.d(C)}$$$RNA1{StrandType:ss}|RNA2{StrandType:as}$”, the normalised inhibition (eCFP-eYFP dual reporter) came out at 27.8%.
